From paper doi:10.1101/2023.06.16.545261v2 (biorxiv, 2023)

Key:
[1] = target: T1, SIRT7 (recombinant human SIRT7, non-tagged) (Homo sapiens, UniProt Q9NRC8); test: fluorogenic deacylase assay; type: biochemical; details: read-out: % inhibition at 100 μM
T1 sequence (Q9NRC8 1-400): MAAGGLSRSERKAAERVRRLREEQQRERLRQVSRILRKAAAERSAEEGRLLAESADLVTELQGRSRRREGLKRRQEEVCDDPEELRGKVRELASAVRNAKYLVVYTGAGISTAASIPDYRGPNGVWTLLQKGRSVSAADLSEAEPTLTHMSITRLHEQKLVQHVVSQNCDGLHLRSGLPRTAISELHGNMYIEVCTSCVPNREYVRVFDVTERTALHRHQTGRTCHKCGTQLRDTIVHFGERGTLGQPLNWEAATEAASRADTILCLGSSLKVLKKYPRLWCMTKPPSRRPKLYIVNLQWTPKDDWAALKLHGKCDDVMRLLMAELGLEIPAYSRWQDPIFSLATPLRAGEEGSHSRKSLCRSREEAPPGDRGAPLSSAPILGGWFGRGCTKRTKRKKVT

[2] = target: T1, SIRT7 (recombinant human SIRT7, non-tagged); test: fluorogenic deacylase assay; type: biochemical

inhibition at 100 µM [1] [%] | IC50 [2] [µM] | SMILES
26 |  | CCCCCCCCCCCCNC(=S)NCCCC[C@H](NC(=O)OCc1ccccc1)C(=O)N[C@@H](C)C(=O)N[C@@H](CCCNC(=N)N)C(N)=O [compound 3]
 | 44 | CCCCCCCCCCCCNC(=O)CCCCC[C@H](NC(=O)OCc1ccccc1)C(=O)N[C@H](C(=O)N[C@@H](CCC(=O)O)C(N)=O)C(C)C [compound 33, inverse amide 33]
 | 34 | CCCCCCCCCCCCNC(=S)CCCCC[C@H](NC(=O)OCc1ccccc1)C(=O)N[C@H](C(=O)N[C@@H](CCC(=O)O)C(N)=O)C(C)C [compound 34, inverse thioamide 34]
